# Experimental data taken from patent US20250250299A1, “MACROCYCLIC IMMUNOMODULATORS” (Bristol-Myers Squibb Company, priority 2022, published 2025).
# Where a SMILES comes first, the peptide text is derived from it. Bridges are numbered along the chain shown (N, C = ends). [ ]: non-standard residue; d: D form. The star is where a group is joined. X1 = O=C(O)CCCCCCCCCCCCCCCCC(=O)N[C@@H](CCC(=O)NCCOCCOCCOCCOCCOCCOCCOCCOCCOCCOCCOCCn1cc(C*)nn1)C(=O)O; Bip = N[C@@H](Cc1ccc(-c2ccccc2)cc1)C(=O)O; Phe(3-Me) = Cc1cccc(C[C@H](N)C(=O)O)c1; Cha = N[C@@H](CC1CCCCC1)C(=O)O; Carboxymethyl = O=C(O)C*; Orn = NCCC[C@H](N)C(=O)O; Dab = NCC[C@H](N)C(=O)O; Dap = NC[C@H](N)C(=O)O
# Target: T1, human PD-1 (Jurkat-PD-1 cells; binding of PE-labeled human PD-L1-Ig) (Homo sapiens, UniProt Q15116)
# T1 construct: expressed in transfected cells; host or cells: Jurkat (Jurkat-PD-1 / Jurkat-hPD-1)
# Assay: Jurkat-PD-1 Cell Binding High-Content Screening Assay
# Conditions: Jurkat cell line over-expressing human PD-1; compound 2 h at 37° C., then PE-labeled PD-L1-Ig 20 nM final, 1 hour; read-out: Jurkat hPD1 PDL1 IC50
# Protocol: The ability of the compounds of formula (I) to bind to PD-1 was investigated using a Jurkat-PD-1 Cell Binding High-Content Screening Assay.
# Phycoerythrin (PE) was covalently linked to the Ig epitope tag of human PD-L1-Ig and fluorescently-labeled PD-L1-Ig was used for binding studies with a Jurkat cell line over-expressing human PD-1 (Jurkat-PD-1). Briefly, 8×10^3 Jurkat-hPD-1 cells were seeded into 384 well plates in 20 μl of DIVEM supplemented with 10% fetal calf serum. 100 nl of compound was added to cells followed by incubation at 37° C. for 2 h. Then, 5 μl of PE-labeled PD-L1-Ig (20 nM final), diluted in DiVEM supplemented with 10 fetal calf serum. After 1 hour incubation, cells were fixed with […] in dPBS containing 10 µg/mL Hoechst 33342 and then washed 3× in 100 μl dPB S. Data was collected and processed using a Cell Insight NXT High Content Imager and associated software.
# T1 sequence (Q15116 25-288): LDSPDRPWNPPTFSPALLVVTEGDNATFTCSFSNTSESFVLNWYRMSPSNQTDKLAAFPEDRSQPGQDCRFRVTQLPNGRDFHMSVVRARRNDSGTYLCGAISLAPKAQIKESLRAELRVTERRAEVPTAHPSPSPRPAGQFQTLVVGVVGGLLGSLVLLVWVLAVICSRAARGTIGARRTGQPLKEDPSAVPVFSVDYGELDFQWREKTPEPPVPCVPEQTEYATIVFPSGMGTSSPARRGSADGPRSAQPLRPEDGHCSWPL
row,IC50 [nM],SMILES
1,110,Cc1cccc(C[C@@H]2NC(=O)[C@H](CC(=O)O)NC(=O)[C@H](Cc3ccc(OCC(=O)O)cc3)NC(=O)[C@H](CN)NC(=O)CSC[C@@H](C(=O)N[C@@H](CCN)C(N)=O)NC(=O)[C@H](CCC(=O)O)NC(=O)[C@H](C(C)C)NC(=O)[C@H](CC3CCCCC3)NC(=O)[C@H](CCN)NC(=O)[C@@H](CC(C)C)NC(=O)[C@H](CCCN)NC(=O)[C@H](Cc3ccc(OCC(=O)O)cc3)NC(=O)[C@H](Cc3ccc(-c4ccccc4)cc3)NC(=O)[C@H](Cc3ccc(OCc4cn(CCOCCOCCOCCOCCOCCOCCOCCOCCOCCOCCOCCNC(=O)CC[C@H](NC(=O)CCCCCCCCCCCCCCCCC(=O)O)C(=O)O)nn4)cc3)NC2=O)c1 [Compound 1004] ({CH2CO}-[Dap]Y(Carboxymethyl)D[Phe(3-Me)]Y(X1)[Bip]Y(Carboxymethyl)[Orn][dL][Dab][Cha]VEC[Dab]-NH2; thioether N-14)
2,510,Cc1cccc(C[C@@H]2NC(=O)[C@H](CC(=O)O)NC(=O)[C@H](Cc3ccc(OCc4cn(CCOCCOCCOCCOCCOCCOCCOCCOCCOCCOCCOCCNC(=O)CC[C@H](NC(=O)CCCCCCCCCCCCCCCCC(=O)O)C(=O)O)nn4)cc3)NC(=O)[C@H](CCN)NC(=O)CSC[C@@H](C(=O)N[C@@H](CCN)C(N)=O)NC(=O)[C@H](CCC(=O)O)NC(=O)[C@H](C(C)C)NC(=O)[C@H](CC3CCCCC3)NC(=O)[C@H](CCN)NC(=O)[C@@H](CC(C)C)NC(=O)[C@H](CCCN)NC(=O)[C@H](Cc3ccc(OCC(=O)O)cc3)NC(=O)[C@H](Cc3ccc(-c4ccccc4)cc3)NC(=O)[C@H](Cc3ccc(OCC(=O)O)cc3)NC2=O)c1 [Compound 1007] ({CH2CO}-[Dab]Y(X1)D[Phe(3-Me)]Y(Carboxymethyl)[Bip]Y(Carboxymethyl)[Orn][dL][Dab][Cha]VEC[Dab]-NH2; thioether N-14)
3,710,Cc1cccc(C[C@@H]2NC(=O)[C@H](CC(=O)O)NC(=O)[C@H](Cc3ccc(OCc4cn(CCOCCOCCOCCOCCOCCOCCOCCOCCOCCOCCOCCNC(=O)CC[C@H](NC(=O)CCCCCCCCCCCCCCCCC(=O)O)C(=O)O)nn4)cc3)NC(=O)[C@H](CN)NC(=O)CSC[C@@H](C(=O)N[C@@H](CCN)C(N)=O)NC(=O)[C@H](CCC(=O)O)NC(=O)[C@H](C(C)C)NC(=O)[C@H](CC3CCCCC3)NC(=O)[C@H](CCN)NC(=O)[C@@H](CC(C)C)NC(=O)[C@H](CCCN)NC(=O)[C@H](Cc3ccc(OCC(=O)O)cc3)NC(=O)[C@H](Cc3ccc(-c4ccccc4)cc3)NC(=O)[C@H](Cc3ccc(OCC(=O)O)cc3)NC2=O)c1 [Compound 1008] ({CH2CO}-[Dap]Y(X1)D[Phe(3-Me)]Y(Carboxymethyl)[Bip]Y(Carboxymethyl)[Orn][dL][Dab][Cha]VEC[Dab]-NH2; thioether N-14)
4,720,Cc1cccc(C[C@@H]2NC(=O)[C@H](CC(=O)O)NC(=O)[C@H](Cc3ccc(OCc4cn(CCOCCOCCOCCOCCOCCOCCOCCOCCOCCOCCOCCNC(=O)CC[C@H](NC(=O)CCCCCCCCCCCCCCCCC(=O)O)C(=O)O)nn4)cc3)NC(=O)[C@H](CCCNC(=N)N)NC(=O)CSC[C@@H](C(=O)N[C@@H](CCN)C(N)=O)NC(=O)[C@H](CCC(=O)O)NC(=O)[C@H](C(C)C)NC(=O)[C@H](CC3CCCCC3)NC(=O)[C@H](CCN)NC(=O)[C@@H](CC(C)C)NC(=O)[C@H](CCCN)NC(=O)[C@H](Cc3ccc(OCC(=O)O)cc3)NC(=O)[C@H](Cc3ccc(-c4ccccc4)cc3)NC(=O)[C@H](Cc3ccc(OCC(=O)O)cc3)NC2=O)c1 [Compound 1009] ({CH2CO}-RY(X1)D[Phe(3-Me)]Y(Carboxymethyl)[Bip]Y(Carboxymethyl)[Orn][dL][Dab][Cha]VEC[Dab]-NH2; thioether N-14)

# The next lines start with the molecule.
row,SMILES,IC50 [nM]
1,Cc1cccc(C[C@@H]2NC(=O)[C@H](CC(=O)O)NC(=O)[C@H](Cc3ccc(OCC(=O)O)cc3)NC(=O)[C@H](CN)NC(=O)CSC[C@@H](C(=O)N[C@@H](CCN)C(N)=O)NC(=O)[C@H](CCC(=O)O)NC(=O)[C@H](C(C)C)NC(=O)[C@H](CC3CCCCC3)NC(=O)[C@H](CCN)NC(=O)[C@@H](CC(C)C)NC(=O)[C@H](CCCN)NC(=O)[C@H](Cc3ccc(OCc4cn(CCOCCOCCOCCOCCOCCOCCOCCOCCOCCOCCOCCNC(=O)CC[C@H](NC(=O)CCCCCCCCCCCCCCCCC(=O)O)C(=O)O)nn4)cc3)NC(=O)[C@H](Cc3ccc(-c4ccccc4)cc3)NC(=O)[C@H](Cc3ccc(OCC(=O)O)cc3)NC2=O)c1 [Compound 1001] ({CH2CO}-[Dap]Y(Carboxymethyl)D[Phe(3-Me)]Y(Carboxymethyl)[Bip]Y(X1)[Orn][dL][Dab][Cha]VEC[Dab]-NH2; thioether N-14 (inferred)),160
2,Cc1cccc(C[C@@H]2NC(=O)[C@H](CC(=O)O)NC(=O)[C@H](Cc3ccc(OCC(=O)O)cc3)NC(=O)[C@H](CCCNC(=N)N)NC(=O)CSC[C@@H](C(=O)N[C@@H](CCN)C(N)=O)NC(=O)[C@H](CCC(=O)O)NC(=O)[C@H](C(C)C)NC(=O)[C@H](CC3CCCCC3)NC(=O)[C@H](CCN)NC(=O)[C@@H](CC(C)C)NC(=O)[C@H](CCCN)NC(=O)[C@H](Cc3ccc(OCc4cn(CCOCCOCCOCCOCCOCCOCCOCCOCCOCCOCCOCCNC(=O)CC[C@H](NC(=O)CCCCCCCCCCCCCCCCC(=O)O)C(=O)O)nn4)cc3)NC(=O)[C@H](Cc3ccc(-c4ccccc4)cc3)NC(=O)[C@H](Cc3ccc(OCC(=O)O)cc3)NC2=O)c1 [Compound 1002] ({CH2CO}-RY(Carboxymethyl)D[Phe(3-Me)]Y(Carboxymethyl)[Bip]Y(X1)[Orn][dL][Dab][Cha]VEC[Dab]-NH2; thioether N-14),140
3,Cc1cccc(C[C@@H]2NC(=O)[C@H](CC(=O)O)NC(=O)[C@H](Cc3ccc(OCC(=O)O)cc3)NC(=O)[C@H](CCCNC(=N)N)NC(=O)CSC[C@@H](C(=O)N[C@@H](CCN)C(N)=O)NC(=O)[C@H](CCC(=O)O)NC(=O)[C@H](C(C)C)NC(=O)[C@H](CC3CCCCC3)NC(=O)[C@H](CCN)NC(=O)[C@@H](CC(C)C)NC(=O)[C@H](CCCN)NC(=O)[C@H](Cc3ccc(OCC(=O)O)cc3)NC(=O)[C@H](Cc3ccc(-c4ccccc4)cc3)NC(=O)[C@H](Cc3ccc(OCc4cn(CCOCCOCCOCCOCCOCCOCCOCCOCCOCCOCCOCCNC(=O)CC[C@H](NC(=O)CCCCCCCCCCCCCCCCC(=O)O)C(=O)O)nn4)cc3)NC2=O)c1 [Compound 1005] ({CH2CO}-RY(Carboxymethyl)D[Phe(3-Me)]Y(X1)[Bip]Y(Carboxymethyl)[Orn][dL][Dab][Cha]VEC[Dab]-NH2; thioether N-14),39
4,Cc1cccc(C[C@@H]2NC(=O)[C@H](CC(=O)O)NC(=O)[C@H](Cc3ccc(OCC(=O)O)cc3)NC(=O)[C@H](Cc3c[nH]cn3)NC(=O)CSC[C@@H](C(=O)N[C@@H](CCN)C(N)=O)NC(=O)[C@H](CCC(=O)O)NC(=O)[C@H](C(C)C)NC(=O)[C@H](CC3CCCCC3)NC(=O)[C@H](CCN)NC(=O)[C@@H](CC(C)C)NC(=O)[C@H](CCCN)NC(=O)[C@H](Cc3ccc(OCC(=O)O)cc3)NC(=O)[C@H](Cc3ccc(-c4ccccc4)cc3)NC(=O)[C@H](Cc3ccc(OCc4cn(CCOCCOCCOCCOCCOCCOCCOCCOCCOCCOCCOCCNC(=O)CC[C@H](NC(=O)CCCCCCCCCCCCCCCCC(=O)O)C(=O)O)nn4)cc3)NC2=O)c1 [Compound 1006] ({CH2CO}-HY(Carboxymethyl)D[Phe(3-Me)]Y(X1)[Bip]Y(Carboxymethyl)[Orn][dL][Dab][Cha]VEC[Dab]-NH2; thioether N-14),55
